Entries after “also recorded” stand apart in the source; their conditions may differ.
Legend:
NALM-6 ALL cells = assay: In vitro radiotracer uptake in NALM-6 cells; type: cell-based; details: for Uptake rate: normalized to [14C]-thymidine, Example 1; for Uptake rate (slope of linear trendline of cell:media ratio): uptake measured at 30, 60, 120 min, FIG. 1 legend
Procedure: Cell uptake studies were performed in the presence of [^3H]-flouroacetate, [^3H]-glucose, and [^14C]-thymidine. Uptake levels were measure at 30, 60, and 120-minute intervals and expressed as a ratio of cellular retention versus concentration in surrounding media (cell:media ratio). Uptake rates were determined as a function of the slope of linear trendline. [^3H]-flouroacetate uptake rates were higher (dotted line; 0.053 min^−1) compared to glucose (dashed line; 0.028 min-1) and thymidine (solid line; 0.024 min^−1).
In vitro uptake of [^3H]-FA, [^3H]-glucose, and [^14C]-thymidine. Radiotracer uptake studies were performed as described previously (Najjar et al., 2009). Briefly, 10^7 NALM-6 were suspended in 6 mL of RPMI medium containing 10% FBS, [^14C]thymidine (0.01 μCi/mL; Moravek, Brea, Calif., USA) and [^3H]-fluoroacetate (0.1 μCi/mL; Moravek) or [^14C]thymidine (0.01 μCi/mL and [^3H]-glucose (2.5 μCi/mL). At time intervals of 30, 60, and 120 minutes, 1 mL aliquots were removed and the cells were pelleted in pre-weighed vials. A […], aliquot of the supernatant was transferred to a pre-weighed scintillation tube. The pellets were weighed following removal of the remainder of the media and thoroughly resuspended in 0.1 mL of Soluene-350 (Perkin-Elmer, Boston, Mass.). Radioactive beta emissions of the media and cell pellets were measured within pre-calibrated energy ranges using a Packard Tri-Carb 3100TR scintillation counter to quantitate [^3H]-FA, [^3H]-glucose, and [^14C]-thymidine uptake. The activity accumulation ratios of the cell pellets to the media ([disintegrations per minute/g cells]/[disintegrations per minute/g media]) were then determined and plotted.
Accordingly, in vitro radiotracer uptake studies were performed to determine the metabolic preference of NALM-6 cells for uptake and retention of fluoroacetate and glucose. The accumulation [^3H]-fluoroacetate and [^3H]-glucose was measured and compared separate experiments (FIG. 1). Uptake levels were normalized to [^14C]-thymidine levels for direct comparison. […] The rates of [^3H]-glucose and [^14C]-thymidine were more closely matched at 0.028 and 0.024 min^−1, respectively.

[1] = tested on: NALM-6 tumor within the central nervous system; assay: Dynamic PET time-activity curve in brain and spinal cord; type: in vivo, mouse; details: 1-hour dynamic PET; NALM-6 tumor-bearing (LMD) vs normal mice
Excerpt: Time-activity curve of [^18F]-fluoroacetate biodistribution within the brain and spinal cord. A dynamic PET scan was used to determine the time-dependent distribution [^18F]-fluoroacetate within regions-of-interest (ROI) in the brains and spinal cords of normal (control) and NALM-6 tumor-bearing (LMD) mice.

| Structure (SMILES) | Uptake rate (NALM-6 ALL cells) | Uptake rate (slope of linear trendline of cell:media ratio) (NALM-6 ALL cells) | Uptake rate relative to [3H]-glucose (NALM-6 ALL cells) | Time-dependent distribution in brain and spinal cord ROI (time-activity curve) [1] |
| --- | --- | --- | --- | --- |
| Cc1cn([C@H]2C[C@H](O)[C@@H](CO)O2)c(=O)[nH]c1=O [[^14C]-thymidine] | 0.024 min⁻¹ | 0.024 min⁻¹ |  |  |
| [3H]C(F)C(=O)O (centres unmarked) [[^3H]-fluoroacetate] | 0.056 min⁻¹ | 0.053 min⁻¹ | nearly twice the rate |  |
| O=C(O)C[18F] [[^18F]-fluoroacetate, ^18F-fluoroacetate] |  |  |  | preferential accumulation of the radiotracer in regions of NALM-6 tumor within the central nervous system; also recorded: higher baseline levels |
| OC[C@H]1OC(O)[C@H](O)[C@@H](O)[C@@H]1O (some centres unmarked) [[^3H]-glucose] | 0.028 min⁻¹ | 0.028 min⁻¹ |  |  |
